Holding throughout (details): 120 h, read-out: percent control or mortality rate
Assay [1] has as its system beet armyworm (Spodoptera exigua). In words: 128 well diet tray insecticidal bioassay, beet armyworm.
Assay [2] concerns cabbage looper (Trichoplusia ni (Huebner)). In words: 128 well diet tray insecticidal bioassay, cabbage looper.
Assay [3] concerns corn earworm (Helicoverpa zea). In words: 128 well diet tray insecticidal bioassay, corn earworm.

SMILES strings stand for the structures.

Broadly, the mortality is the percentage killed.

Regarding `O=C(Nc1nc(OCC(F)(F)F)cc(OCC(F)(F)F)n1)Nc1sccc1Br` [Compound 45], in assay [1], the mortality at 50 µg/cm2 was under 80%.
Same read-out and setting: in the case of `CN(C(=O)Nc1nc(OCC(F)(F)F)cc(OCC(F)(F)F)n1)c1sccc1Cl` [Compound 28] it was under 80%.
In the case of `Cc1ccc(N(C)C(=O)Nc2nc(OCC(F)(F)F)cc(OCC(F)(F)F)n2)s1` [Compound 39], the mortality at 50 µg/cm2 in assay [2] lay in the range of 80 to 100%.
As to `CN(C(=O)Nc1nc(OCC(F)(F)F)c(F)c(OCC(F)(F)F)n1)c1ccc(C(F)(F)F)s1` [Compound 13], the mortality at 50 µg/cm2 in assay [1] and in assay [3] was 80 to 100% each time.
In the case of `Cc1ccsc1NC(=O)Nc1nc(OCC(F)(F)F)cc(OCC(F)(F)F)n1` [Compound 37], the mortality at 50 µg/cm2 is 80 to 100% in assay [1] and under 80% in assay [2].
In the case of `O=C(Nc1nc(OCC(F)(F)F)cc(OCC(F)(F)F)n1)Nc1ccc(C(F)(F)F)s1` [Compound 1, 3-(4,6-bis(2,2,2-trifluoroethoxy)pyrimidin-2-yl)-1-(5-(trifluoromethyl)thiophen-2-yl)urea], the values for the mortality at 50 µg/cm2 in assay [1] and in assay [3] were under 80% and 80 to 100%, respectively.
As for `O=C(Nc1nc(OCC(F)(F)F)cc(OCC(F)(F)F)n1)Nc1sc(Cl)c(Cl)c1Cl` [Compound 44], the mortality at 50 µg/cm2 in assay [1] and in assay [2] was 80 to 100% in each case.
As to `CC(=O)OCN(C(=O)Nc1ccc(C(F)(F)F)s1)c1nc(OCC(F)(F)F)cc(OCC(F)(F)F)n1` [Compound 5], the mortality at 50 µg/cm2 in assay [1] and in assay [3] was 80 to 100% each time.
Regarding `CN(C(=O)Nc1nc(OCC(F)(F)F)cc(OCC(F)(F)F)n1)c1ccc(C(F)(F)F)s1` [Compound 2, 3-(4,6-bis(2,2,2-trifluoroethoxy)pyrimidin-2-yl)-1-methyl-1-(5-(trifluoromethyl)thiophen-2-yl)urea], the mortality at 50 µg/cm2 in assay [1] and in assay [3] was 80 to 100% each time.
Turning to `COc1c(Cl)csc1NC(=O)Nc1nc(OCC(F)(F)F)cc(OCC(F)(F)F)n1` [Compound 25], the mortality at 50 µg/cm2 in assay [1] and in assay [2] was 80 to 100% each time.
`CN(C(=O)Nc1nc(OCC(F)(F)F)cc(OCC(F)(F)F)n1)c1cc(C#N)cs1` [Compound 38]: the mortality at 50 µg/cm2 in assay [2] was in the range of 80 to 100%.
As to `O=C(Nc1nc(OCC(F)(F)F)c(F)c(OCC(F)(F)F)n1)Nc1ccc(C(F)(F)F)s1` [Compound 12], the mortality at 50 µg/cm2 in assay [1] and in assay [3] was 80 to 100% in each case.
In the case of `COCN(C(=O)Nc1ccc(C(F)(F)F)s1)c1nc(OCC(F)(F)F)c(F)c(OCC(F)(F)F)n1` [Compound 15], in assay [1], the mortality at 50 µg/cm2 lay within 80 to 100%.
As for `CC(=O)OCN(C(=O)N(C)c1ccc(C(F)(F)F)s1)c1nc(OCC(F)(F)F)c(F)c(OCC(F)(F)F)n1` [Compound 19], the mortality at 50 µg/cm2 in assay [1] and in assay [3] was 80 to 100% throughout.
Regarding `CN(C(=O)N(COCc1ccccc1)c1nc(OCC(F)(F)F)cc(OCC(F)(F)F)n1)c1ccc(C(F)(F)F)s1` [Compound 9], the mortality at 50 µg/cm2 in assay [1] and in assay [3] was 80 to 100% in each case.
On to `CC(=O)OCN(C(=O)N(C)c1ccc(C(F)(F)F)s1)c1nc(OCC(F)(F)F)cc(OCC(F)(F)F)n1` [Compound 8], for which the mortality at 50 µg/cm2 in assay [1] and in assay [3] was 80 to 100% throughout.
Turning to `Cc1ccsc1N(C)C(=O)Nc1nc(OCC(F)(F)F)cc(OCC(F)(F)F)n1` [Compound 31], the mortality at 50 µg/cm2 in assay [2] is under 80%.
On to `COc1ccsc1N(C)C(=O)Nc1nc(OCC(F)(F)F)cc(OCC(F)(F)F)n1` [Compound 36], for which the mortality at 50 µg/cm2 in assay [2] is under 80%.
For `COCN(C(=O)N(COCc1ccccc1)c1nc(OCC(F)(F)F)cc(OCC(F)(F)F)n1)c1ccc(C(F)(F)F)s1` [Compound 10, 3-(benzyloxymethyl)-3-(4,6-bis(2,2,2-trifluoroethoxy)pyrimidin-2-yl)-1-(methoxymethyl)-1-(5-(trifluoromethyl)thiophen-2-yl)urea], the mortality at 50 µg/cm2 in assay [1] and in assay [3] was 80 to 100% throughout.
For `CN(C(=O)Nc1nc(OCC(F)(F)F)cc(OCC(F)(F)F)n1)c1cc(-c2ccc(Cl)cc2)cs1` [Compound 26], the mortality at 50 µg/cm2 in assay [1] and in assay [2] was 80 to 100% throughout.
In the case of `O=C(Nc1nc(OCC(F)(F)F)cc(OCC(F)(F)F)n1)Nc1sccc1Cl` [Compound 32], the mortality at 50 µg/cm2 in assay [1] is 80 to 100%.
Consider `Cc1csc(N(C)C(=O)Nc2nc(OCC(F)(F)F)cc(OCC(F)(F)F)n2)c1` [Compound 34], for which the mortality at 50 µg/cm2 in assay [2] fell in the range of 80 to 100%.
Turning to `COCN(C(=O)Nc1ccc(C(F)(F)F)s1)c1nc(OCC(F)(F)F)cc(OCC(F)(F)F)n1` [Compound 4, 3-(methoxymethyl)-3-(4,6-bis(2,2,2-trifluoroethoxy)pyrimidin-2-yl)-1-(5-(trifluoromethyl)thiophen-2-yl)urea], the mortality at 50 µg/cm2 in assay [1] and in assay [3] was 80 to 100% each time.
Turning to `COc1c(Cl)csc1N(C)C(=O)Nc1nc(OCC(F)(F)F)cc(OCC(F)(F)F)n1` [Compound 35], in assay [2], the mortality at 50 µg/cm2 is under 80%.
Consider `COCN(C(=O)N(C)c1ccc(C(F)(F)F)s1)c1nc(OCC(F)(F)F)cc(OCC(F)(F)F)n1` [Compound 7], for which the mortality at 50 µg/cm2 in assay [1] and in assay [3] was 80 to 100% in each case.

For the origin of these results see patent US9227957B2, “Pesticidal pyrimidine compounds” (Dow AgroSciences, LLC, priority 2012, dated 2016).
